System: 857933-349-R-J2-PDC complex spheroids, viability
Assay: Anticancer human tumor 857933-349-R-J2-PDC patient-derived colon adenocarcinoma cell line growth inhibition [GQUAD]
Details: for IC50: curve of first compound; for viability, T/C: stronger effect = lower value
Method in brief: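 Tumor cells were grown as complex spheroids with HUVEC endothelial cells and mesenchymal stem cells as stroma. G-quadruplex stabilizers were combined with targeted agents over half-log dilutions from near the clinical Cmax, or from 10 microM.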

[1] = second compound 0.0316 µM, first compound 0.0316 µM
[2] = second compound 0.0316 µM, first compound 0.1 µM
[3] = second compound 0.0316 µM, first compound 0.316 µM
[4] = second compound 0.0316 µM, first compound 1 µM
[5] = second compound 0.0316 µM, first compound 3.16 µM
[6] = second compound 0.0316 µM, first compound 10 µM
[7] = second compound 0.1 µM, first compound 0.0316 µM
[8] = second compound 0.1 µM, first compound 0.1 µM
[9] = second compound 0.1 µM, first compound 0.316 µM
[10] = second compound 0.1 µM, first compound 1 µM
[11] = second compound 0.1 µM, first compound 3.16 µM
[12] = second compound 0.1 µM, first compound 10 µM
[13] = second compound 0.316 µM, first compound 0.0316 µM
[14] = second compound 0.316 µM, first compound 0.1 µM
[15] = second compound 0.316 µM, first compound 0.316 µM
[16] = second compound 0.316 µM, first compound 1 µM
[17] = second compound 0.316 µM, first compound 3.16 µM
[18] = second compound 0.316 µM, first compound 10 µM
[19] = second compound 1 µM, first compound 0.0316 µM
[20] = second compound 1 µM, first compound 0.1 µM
[21] = second compound 1 µM, first compound 0.316 µM
[22] = second compound 1 µM, first compound 1 µM
[23] = second compound 1 µM, first compound 3.16 µM
[24] = second compound 1 µM, first compound 10 µM
[25] = second compound 3.16 µM, first compound 0.0316 µM
[26] = second compound 3.16 µM, first compound 0.1 µM
[27] = second compound 3.16 µM, first compound 0.316 µM
[28] = second compound 3.16 µM, first compound 1 µM
[29] = second compound 3.16 µM, first compound 3.16 µM
[30] = second compound 3.16 µM, first compound 10 µM
[31] = second compound 10 µM, first compound 0.0316 µM
[32] = second compound 10 µM, first compound 0.1 µM
[33] = second compound 10 µM, first compound 0.316 µM
[34] = second compound 10 µM, first compound 1 µM
[35] = second compound 10 µM, first compound 3.16 µM
[36] = second compound 10 µM, first compound 10 µM
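Further: spheroids exposed to compounds for one week before readout.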
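Wherever viability, T/C is given: percent viability relative to vehicle DMSO wells taken as 100%.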

Compound: C=CCn1c(=O)c2cnc(Nc3ccc(N4CCN(C)CC4)cc3)nc2n1-c1cccc(C(C)(C)O)n1 + Cc1[nH]c2ccc(F)cc2c1-c1nc2c3cccnc3c3ncccc3c2[nH]1
- IC50 (second compound 0.0316 µM): 1930 nM
- IC50 (second compound 0.1 µM): 1920 nM
- IC50 (second compound 0.316 µM): 1470 nM
- IC50 (second compound 1 µM): 1570 nM
- IC50 (second compound 3.16 µM): 960 nM
- IC50 (second compound 10 µM): 1390 nM
- viability, T/C [1]: 107%
- viability, T/C [2]: 99.1%
- viability, T/C [3]: 94.5%
- viability, T/C [4]: 77%
- viability, T/C [5]: 28.8%
- viability, T/C [6]: 27.8%
- viability, T/C [7]: 105%
- viability, T/C [8]: 104%
- viability, T/C [9]: 97.2%
- viability, T/C [10]: 81.5%
- viability, T/C [11]: 25.4%
- viability, T/C [12]: 24%
- viability, T/C [13]: 107%
- viability, T/C [14]: 98.1%
- viability, T/C [15]: 94%
- viability, T/C [16]: 62.7%
- viability, T/C [17]: 24.2%
- viability, T/C [18]: 26%
- viability, T/C [19]: 98.5%
- viability, T/C [20]: 86.1%
- viability, T/C [21]: 86%
- viability, T/C [22]: 63.4%
- viability, T/C [23]: 29.6%
- viability, T/C [24]: 23.9%
- viability, T/C [25]: 94.8%
- viability, T/C [26]: 76%
- viability, T/C [27]: 78.1%
- viability, T/C [28]: 48.7%
- viability, T/C [29]: 27.8%
- viability, T/C [30]: 24.5%
- viability, T/C [31]: 86.1%
- viability, T/C [32]: 77.8%
- viability, T/C [33]: 75.3%
- viability, T/C [34]: 58.7%
- viability, T/C [35]: 30%
- viability, T/C [36]: 24.9%

Compound: CC(C)(O)C1CCC(Nc2ccc3ncc(-c4cccc(C(F)(F)F)c4)n3n2)CC1 (stereo not drawn) + Cc1[nH]c2ccc(F)cc2c1-c1nc2c3cccnc3c3ncccc3c2[nH]1
- IC50 (second compound 0.0316 µM): 761 nM
- IC50 (second compound 0.1 µM): 725 nM
- IC50 (second compound 0.316 µM): 673 nM
- IC50 (second compound 1 µM): 682 nM
- IC50 (second compound 3.16 µM): 657 nM
- IC50 (second compound 10 µM): 707 nM
- viability, T/C [1]: 107%
- viability, T/C [2]: 95.8%
- viability, T/C [3]: 96.4%
- viability, T/C [4]: 35.7%
- viability, T/C [5]: 2.35%
- viability, T/C [6]: 2.26%
- viability, T/C [7]: 104%
- viability, T/C [8]: 97.8%
- viability, T/C [9]: 93%
- viability, T/C [10]: 33.5%
- viability, T/C [11]: 2.03%
- viability, T/C [12]: 1.93%
- viability, T/C [13]: 104%
- viability, T/C [14]: 92%
- viability, T/C [15]: 87.3%
- viability, T/C [16]: 30.8%
- viability, T/C [17]: 2.68%
- viability, T/C [18]: 2.19%
- viability, T/C [19]: 93.4%
- viability, T/C [20]: 87.3%
- viability, T/C [21]: 87.5%
- viability, T/C [22]: 31.4%
- viability, T/C [23]: 2.43%
- viability, T/C [24]: 1.82%
- viability, T/C [25]: 87.3%
- viability, T/C [26]: 85.1%
- viability, T/C [27]: 79.5%
- viability, T/C [28]: 33.1%
- viability, T/C [29]: 3.45%
- viability, T/C [30]: 2.02%
- viability, T/C [31]: 86.6%
- viability, T/C [32]: 84.6%
- viability, T/C [33]: 81.7%
- viability, T/C [34]: 36.4%
- viability, T/C [35]: 3.99%
- viability, T/C [36]: 2.51%

Compound: Cc1[nH]c2ccccc2c1CCNCc1ccc(/C=C/C(=O)NO)cc1 + Cc1[nH]c2ccc(F)cc2c1-c1nc2c3cccnc3c3ncccc3c2[nH]1
- IC50 (second compound 0.0316 µM): > 316 nM
- IC50 (second compound 0.1 µM): > 316 nM
- IC50 (second compound 0.316 µM): > 316 nM
- IC50 (second compound 1 µM): > 316 nM
- IC50 (second compound 3.16 µM): > 316 nM
- IC50 (second compound 10 µM): > 316 nM
- viability, T/C (second compound 0.0316 µM, first compound 0.000999 µM): 103%
- viability, T/C (second compound 0.0316 µM, first compound 0.00316 µM): 95.8%
- viability, T/C (second compound 0.0316 µM, first compound 0.00999 µM): 97.6%
- viability, T/C [1]: 104%
- viability, T/C (second compound 0.0316 µM, first compound 0.0999 µM): 94%
- viability, T/C [3]: 59.1%
- viability, T/C (second compound 0.1 µM, first compound 0.000999 µM): 104%
- viability, T/C (second compound 0.1 µM, first compound 0.00316 µM): 101%
- viability, T/C (second compound 0.1 µM, first compound 0.00999 µM): 102%
- viability, T/C [7]: 106%
- viability, T/C (second compound 0.1 µM, first compound 0.0999 µM): 99.7%
- viability, T/C [9]: 60.7%
- viability, T/C (second compound 0.316 µM, first compound 0.000999 µM): 101%
- viability, T/C (second compound 0.316 µM, first compound 0.00316 µM): 104%
- viability, T/C (second compound 0.316 µM, first compound 0.00999 µM): 96%
- viability, T/C [13]: 92.8%
- viability, T/C (second compound 0.316 µM, first compound 0.0999 µM): 107%
- viability, T/C [15]: 59.2%
- viability, T/C (second compound 1 µM, first compound 0.000999 µM): 109%
- viability, T/C (second compound 1 µM, first compound 0.00316 µM): 90%
- viability, T/C (second compound 1 µM, first compound 0.00999 µM): 93.7%
- viability, T/C [19]: 97.7%
- viability, T/C (second compound 1 µM, first compound 0.0999 µM): 105%
- viability, T/C [21]: 61.4%
- viability, T/C (second compound 3.16 µM, first compound 0.000999 µM): 90.8%
- viability, T/C (second compound 3.16 µM, first compound 0.00316 µM): 79.8%
- viability, T/C (second compound 3.16 µM, first compound 0.00999 µM): 86.2%
- viability, T/C [25]: 88%
- viability, T/C (second compound 3.16 µM, first compound 0.0999 µM): 104%
- viability, T/C [27]: 66.8%
- viability, T/C (second compound 10 µM, first compound 0.000999 µM): 87%
- viability, T/C (second compound 10 µM, first compound 0.00316 µM): 89.4%
- viability, T/C (second compound 10 µM, first compound 0.00999 µM): 88.1%
- viability, T/C [31]: 95.3%
- viability, T/C (second compound 10 µM, first compound 0.0999 µM): 105%
- viability, T/C [33]: 61%

Compound: O=C(NO)c1cnc(N2CCN(S(=O)(=O)c3ccc4ccccc4c3)CC2)nc1 + Cc1[nH]c2ccc(F)cc2c1-c1nc2c3cccnc3c3ncccc3c2[nH]1
- IC50 (second compound 0.0316 µM): 1530 nM
- IC50 (second compound 0.1 µM): 1590 nM
- IC50 (second compound 0.316 µM): 1610 nM
- IC50 (second compound 1 µM): 1680 nM
- IC50 (second compound 3.16 µM): 1600 nM
- IC50 (second compound 10 µM): 1770 nM
- viability, T/C [1]: 107%
- viability, T/C [2]: 96.5%
- viability, T/C [3]: 107%
- viability, T/C [4]: 79%
- viability, T/C [5]: 1.25%
- viability, T/C [6]: 0.26%
- viability, T/C [7]: 109%
- viability, T/C [8]: 103%
- viability, T/C [9]: 100%
- viability, T/C [10]: 81.9%
- viability, T/C [11]: 2.07%
- viability, T/C [12]: 0.2%
- viability, T/C [13]: 101%
- viability, T/C [14]: 100%
- viability, T/C [15]: 96.1%
- viability, T/C [16]: 80.5%
- viability, T/C [17]: 6.68%
- viability, T/C [18]: 0.19%
- viability, T/C [19]: 94.7%
- viability, T/C [20]: 92.4%
- viability, T/C [21]: 98.2%
- viability, T/C [22]: 84.8%
- viability, T/C [23]: 7.25%
- viability, T/C [24]: 0.23%
- viability, T/C [25]: 93.1%
- viability, T/C [26]: 93.7%
- viability, T/C [27]: 96.1%
- viability, T/C [28]: 80.8%
- viability, T/C [29]: 4.92%
- viability, T/C [30]: 0.25%
- viability, T/C [31]: 95.7%
- viability, T/C [32]: 94.2%
- viability, T/C [33]: 99.2%
- viability, T/C [34]: 93.6%
- viability, T/C [35]: 5.75%
- viability, T/C [36]: 0.31%

From PubChem BioAssay AID2060491 (Molecular Pharmacology Branch, DTP, NCI, 2025)
